Here are results for one compound from patent publication US20030198674A1, “Controlled release pharmaceutical dosage forms of a cholesteryl ester transfer protein inhibitor” (priority 2002, published 2003).

Series [1] can be described thus: Single-dose plasma Drug A concentration vs. time curve fitted to 2-compartment PK model. The format is in vivo, Human. As to the method: Pharmacokinetic (PK) constants were derived by fitting this curve to a 2-compartment PK model, assuming a small intestinal transit time of 4 hr, and a gastric emptying time of 15 min.
The nature of series [2]: Plasma half-life of Drug A. The format is in vivo.
Series [3] in a line: Aqueous solubility of Drug A. The format is physicochemical.
Setting [4] is: 120 mg Drug A, fitted 2-compartment model.

Converted amounts (≈) assume the structure as drawn. Where two headings read alike, the source gives them in different places. Bounds are passed on as bounds.

For orientation: solubility means the dissolved amount per volume that the medium holds. With `CCOC(=O)N1c2ccc(C(F)(F)F)cc2[C@@H](N(Cc2cc(C(F)(F)F)cc(C(F)(F)F)c2)C(=O)OC)C[C@H]1CC` [Drug A, [2R,4S] 4-[(3,5-bis-trifluoromethyl-benzyl)-methoxycarbonyl-amino]-2-ethyl-6-trifluoromethyl-3,4-dihydro-2H-quinoline-1-carboxylic acid ethyl ester], in series [1] (setting [4]), the “Absorption Ka” value was found to be 2.27 h⁻¹, the K12 came out at 0.017 h⁻¹ and the K21 worked out at 0.002 h⁻¹. Further, the “Kel (Elimination Rate Constant)” value in series [1] (calculated from Cl/Vd) was 0.042 h⁻¹. Besides, the clearance in series [1] (human, plasma, oral, 120 mg, read-out: Clearance (Cl) (converted)) is 218 mL/min. The Vd in series [1] (human, plasma, oral, 120 mg, read-out: Volume of distribution (Vd)) was 174 L. The half-life in series [2] (read-out: additional long terminal elimination half-life) fell in the range of 4.17 to 8.33 days. Also, the half-life in series [2] (read-out: effective plasma terminal half-life (t1/2)) fell in the range of 1.25 to 2.92 days. Further, the aqueous solubility entry in series [3] was “about 0.04 microgm/ml”. The compound also registered a solubility in series [3] (water (aqueous), accurate measurements, crystalline) of about 0.01 µg/mL (≈ 0.0167 µM). Also, the solubility in series [3] (water, read-out: solubility in water) was under 1 µg/mL.
